Values of other authors in patent US20060163529A1, “Water-based coolant fluid for engine applications” (Neste Oil Oyj, priority 2002, published 2006).

System: rats
Conditions: tested orally in rats

SMILES	LD50
C[N+](C)(C)CC(=O)O [Trimethyl glycine, trimethyl glycine]	11 200 mg/kg
CC(O)CO (centres unmarked) [Propylene glycol, propylene glycol]	20 000 mg/kg
